Key:
[1] = system: COLO320-DM and SNU16 (ecDNA+), COLO320-HSR and DLD1 (ecDNA−) cell models; experiment: In vitro soft agar colony formation assay, 21 days, RNRi (FIG. 40A); format: cell-based; conditions: treated once on day of seeding, increasing doses
Description: (§1) FIGS. 40A-40C show inhibition of RNR blocks nucleotide synthesis causing enhanced replication stress and reduced cellular transformation in ecDNA+ compared to ecDNA-tumor cells. […] In FIG. 40A, to evaluate cellular transformation, an in vitro soft agar colony formation assay was conducted wherein ecDNA bearing COLO320-DM and SNU16 cell models were grown alongside ecDNA− cell models, COLO320-HSR and DLD1 in this 3D-format assay for 21 days. Cells were treated individually only once on the day of the seeding of cells at increasing doses of RNRi, (5-chloro-2-[[rac-(1S,2R)-2-(6-fluoro-2,3-dimethyl-phenyl)-1-(2-oxo-3H-1,3,4-oxadiazol-5-yl)propyl]sulfamoyl]benzamide). In FIG. 40B, to determine change in ecDNA carrying MYC amplified oncogene counts, ecDNA+ (COLO320-DM) cells were treated with an IC-90 dose (10 uM) of RNRi for 21 days. Cells in log-growth phase were arrested in metaphase. FISH (Florescent in-situ hybridization) for MYC oncogene was performed on the fixed metaphase spreads and the nuclei were counterstained with DAPI. […] Cells were lysed and immunoblotted with pRPA32-S33 antibody as a marker of ssDNA-damage induced replication stress.

[2] = system: ecDNA+ (COLO320-DM) cells; experiment: IC-90 and IC-70 doses of RNRi in COLO320-DM cells; format: cell-based
Description: as §1

[3] = system: HeLa cells; experiment: HeLa cell confluence by high-content microscopy over three weeks, with or without 100 nM methotrexate; format: cell-based; conditions: three weeks
Description: Cell confluence was measured via high-content microscopy over the time course.
HeLa cells were treated with a WEE1 inhibitor, 0.01-0.3 μM adavosertib alone, with 1 nM-100 nM PD0166285, with 100 nM methotrexate alone, or with a combination of 0.01-0.3 μM adavosertib and 100 nM methotrexate or a combination of 1 nM-100 nM PD0166285 and 100 nM methotrexate over the course of three weeks. Cell confluence was measured via high-content microscopy over the time course.
HeLa cells were treated with a PARG inhibitor, 3-100 μM PD00017273 with (FIG. 35 top panel) or without (FIG. 35 bottom panel) 100 nM methotrexate over the course of 3 weeks. Cell confluence was measured via high-content microscopy over the time course.
Cell confluence was measured via high-content microscopy over the time course. […] However.

[4] = system: HeLa ecDNA+ and HeLa ecDNA− cells; experiment: HeLa ecDNA+ vs ecDNA− response to Chk1 inhibition, RS and DNA damage markers (FIG. 41A); format: cell-based
[5] = system: ecDNA+ (Colo320 DM) and ecDNA− (Colo320 HSR) cells; experiment: p-RPA32 S4/S8 foci by immunofluorescence after CHK1i (FIG. 41B); format: cell-based; conditions: 16 hr treatment
Excerpt: Increased Chk1 phosphorylation at S345 indicates higher activation of RS-activated ATR kinase, while increased gH2AX indicates increased damage resulting from DNA double stranded breaks triggered by replication stress. […] Hyperphosphorylated form of Replication Protein A (RPA) 32 Ser4/Ser8 was detected by immunofluorescence in fixed ecDNA+ (Colo320 DM) and ecDNA− (Colo320 HSR) cell line models that were previously treated with CHK1 i GDC-0575 for 16 hr. Representative bar graph represents % total nuclei positive for P-RPA32 S4/S8 foci (minimum threshold of >3 puncta/nuclei) detected by immunofluorescence in ecDNA+ and ecDNA− cells.

[6] = system: MYC, FGFR2, and EGFR copy number in SNU16 cells; experiment: qPCR gene copy number in SNU16 cells during infigratinib treatment; format: cell-based, human; conditions: 1 μM infigratinib for 9 weeks
Description: The SNU16 cells were treated with 1 μM of an FGFR inhibitor (infigratinib) for 9 weeks. DNA was collected at days 3, 14, 28, 42, 56, and 63 days and qPCR was performed to assess copy number for MYC. FGFR2, and EGFR at each time point. Cells after 8 weeks of infigratinib treatment and untreated SNU16 control cells were also assayed by FISH for EGFR.
To assess ecDNA copy number dynamics throughout the development of infigratinib resistance, DNA was extracted using the QIAamp DNA Mini Kit (Qiagen) and the DNA was amplified via quantitative PCR (qPCR) using Taqman copy number assays (ThermoFisher). The EGFR Taqman assay ID was Hs00997424_cn; GFGR2 assay ID was Hs05182482_cn; and the MYC assay ID was Hs03660964_cn. The cycle threshold values were normalized to the internal RNase P Taqman assay, and gene copy number was calculated using the ΔΔCt method and the DNA from a diploid control cell line, DLD1.
Methods: SNU16 control cells were cultured in RPMI-1640 media with 10% FBS under standard tissue culture conditions at 37° C. and with 5% CO2. Low passage control cells were treated with 1 μM infigratinib over the course of 9 weeks. Cells were passaged as needed and media and infigratinib were replaced at least once per week. DNA was collected at day 3 and weeks 2, 4, 6, 8 and 9. Cells in metaphase were collected at 8 weeks from both control and infigratinib-resistant cells.

[7] = system: SNU16 cells; experiment: Long-term cell growth / resistance development in SNU16 cells; format: cell-based, human; conditions: for cell growth / resistance formation: 9 weeks
Description: Each treatment arm was terminated once the cell number reached 5×10^6.
SNU16 cells were subdivided into five groups and each group of 1×10^6 cells was subjected to treatment with 1 μM infigratinib, 1 μM erlotinib, 1 μM infigratinib and 1 μM erlotinib, 0.1 μM adavosertib and cell growth was recorded over 9 weeks.
SNU16 cells were subdivided into five groups and each group of 1×10^6 cells was subjected to treatment with infigratinib, erlotinib, PD00017273, infigratinib and erlotinib, or infigratinib and PD00017273 and cell growth was recorded over 9 weeks.
SNU16 (CRL-5974) cell line was purchased from ATCC. SNU16 cells were grown in RPMI 1640 medium (Fisher Scientific) with 10% FBS and 100 U/ml penicillin/streptomycin (Fisher Scientific). For the resistance experiments, SNU16 cells were plated at 2 million per T75 flask and were treated with either 1 μM infigratinib (Selleck Chemicals), 1 μM erlotinib (Selleck Chemicals), 10 nM gemcitabine (Sigma Aldrich), or a combination. The media was changed and fresh drug was added at least once per week. The cells were counted over the span of several weeks to measure cell growth.

[8] = system: infigratinib-resistant SNU16 cells; experiment: Secondary resistance, cell growth of infigratinib-resistant SNU16 cells over 5 weeks; format: cell-based, human; conditions: FIG. 26, 1 uM infigratinib, 1 uM erlotinib, 10 nM gemcitabine
Description: The infigratinib-resistant SNU16 cells (generated as shown in FIG. 25) were subdivided into six groups and each group of 1×10^6 cells was subjected to treatment with 1 uM infigratinib, 1 uM erlotinib, 10 nM gemcitabine, or 1 uM erlotinib+10 nM gemcitabine and the cell growth was recorded over 5 weeks. Each treatment arm was terminated once the cell number reached 5×10^6.

[9] = system: SNU16 cells; experiment: 5 day viability assay, CellTiter-Glo 2.0; format: cell-based; conditions: Homo sapiens, SNU-16
[10] = system: KATOIII cells; experiment: 5 day viability assay, CellTiter-Glo 2.0; format: cell-based; conditions: Homo sapiens, KATO III
[11] = system: KATOIII cells; experiment: Long-term growth curves under targeted inhibitor; format: cell-based; conditions: infigratinib at EC90 (1 uM), 11 weeks
Description: (§2) To measure growth kinetics over time, each cell line was treated once or twice per week with targeted inhibitor against the amplified oncogene.

[12] = system: SNU16 cells; experiment: Long-term growth curves under targeted inhibitor; format: cell-based, human; conditions: infigratinib at EC90 (1 uM), 6 weeks
Description: as §2

[13] = system: Calu-3 cells; experiment: 5 day viability assay, CellTiter-Glo 2.0; format: cell-based; conditions: Homo sapiens, Calu3, ERBB2 amplification, Chromosomal, read-out: 3-5 day acute cytotoxicity EC50
Description: (§3) For these long-term growth curves, the EC50 of targeted therapy was first determined in short term 5 day viability assays. To determine the EC50 of irbinitinib, H2170 cells were plated at 3000 cell/well in a 96-well plate; SKBR3 and Calu-3 cells were plated at 3500 cells/well in a 96-well plate. All cells were dosed with irbinitinib continuously for 5 days (serial dilutions ranging from 12 nM to 1 uM) along with a DMSO control. EC50 curves were determined based on cell viability using CellTiter-Glo 2.0 reagent (Promega). […]

[14] = system: H2170 cells; experiment: 5 day viability assay, CellTiter-Glo 2.0; format: cell-based; conditions: Homo sapiens, NCI-H2170
Description: as §3

[15] = system: SKBR3 cells; experiment: 5 day viability assay, CellTiter-Glo 2.0; format: cell-based; conditions: Homo sapiens, SK-BR-3; SKBP3, ERBB2 amplification, Chromosomal; read-out: 3-5 day acute cytotoxicity EC50
Description: as §3

[16] = system: Calu-3 cells; experiment: Long-term growth curves under targeted inhibitor; format: cell-based; conditions: Calu3, ERBB2 Chromosomal; 2× then 4× the relative EC50, 6 weeks
Description: as §2

[17] = system: SKBR3 cells; experiment: Long-term growth curves under targeted inhibitor; format: cell-based; conditions: SKBP3, ERBB2 Chromosomal; 2× then 4× the relative EC50, 6 weeks
Description: as §2

Cc1ccc(F)c([C@@H](C)[C@H](NS(=O)(=O)c2ccc(Cl)cc2C(N)=O)c2n[nH]c(=O)o2)c1C (racemic) [5-chloro-2-[[rac-(1S,2R)-2-(6-fluoro-2,3-dimethyl-phenyl)-1-(2-oxo-3H-1,3,4-oxadiazol-5-yl)propyl]sulfamoyl]benzamide]
cellular transformation, replication stress [1]: enhanced replication stress and reduced cellular transformation in ecDNA+ compared to ecDNA(−) tumor cells | IC-70 dose [2]: 7 µM | IC90 ([2]; Homo sapiens, COLO 320DM): 10000 nM

N[C@@H]1CCCN(c2c(Br)cnc3[nH]cc(NC(=O)C4CC4)c23)C1 [GDC-0575]
development of methotrexate resistance ([3]; in combination with 100 nM methotrexate): prevented development of methotrexate resistance | cell growth (cell confluence), agent alone ([3]; 10 nM GDC-0575, 100 nM methotrexate, 300 nM-10 μM AZD6738): no effect on cell growth | induction of markers of RS and DNA damage (Chk1 phosphorylation at S345, gH2AX) ([4]; 200 nM for 24 h): much stronger induction of markers of RS and DNA damage than ecDNA− cells | sensitivity of HeLa ecDNA+ over HeLa ecDNA− cells ([4]; HeLa ecDNA+ grown in 1 uM methotrexate): increased sensitivity | pRPA levels (% total nuclei positive for P-RPA32 S4/S8 foci) [5]: increases pRPA levels in ecDNA+ (DM) cells vs. matched ecDNA− (HSR) cells

CCN1CCN(c2ccc(Nc3cc(N(C)C(=O)Nc4c(Cl)c(OC)cc(OC)c4Cl)ncn3)cc2)CC1 [infigratinib]
copy number for MYC and FGFR2 [6]: remained relatively constant | copy number of EGFR [6]: increased | cell growth / development of primary resistance ([7]; FIG. 25, 12 weeks, 1 uM infigratinib, 1 uM erlotinib, 10 nM gemcitabine): strongly suppressed cell growth for 5 weeks, after which cells developed resistance and grew rapidly | cell growth / resistance formation ([7]; FIG. 30, 1 μM infigratinib, 1 μM erlotinib, 0.1 μM adavosertib): transient growth suppression | cell growth / resistance formation ([7]; FIG. 34): transient growth suppression for approximately 3 weeks | cell growth / development of secondary resistance [8]: no effect on cell growth on its own | EC90 ([9]; SNU16): 1000 nM | EC50 ([9]; SNU16, ecDNA, read-out: 3-5 day acute cytotoxicity EC50): 14 nM | EC90 [10]: 1000 nM | EC50 ([10]; Chromosomal, read-out: 3-5 day acute cytotoxicity EC50): 13 nM | Long-term culture growth properties [11]: <1 viability >10 weeks | Long-term culture growth properties [12]: Near normal

Cc1cc(Nc2ncnc3ccc(NC4=NC(C)(C)CO4)cc23)ccc1Oc1ccn2ncnc2c1 [irbinitinib]
EC50 [13]: 414 nM | EC90 [14]: 500 nM | EC50 ([14]; H2170, ERBB2 amplification, ecDNA, read-out: 3-5 day acute cytotoxicity EC50): 110 nM | EC50 [15]: 43 nM | Long-term culture growth properties [16]: Reduced proliferation | Long-term culture growth properties [17]: <1% viability >6 weeks

Source: patent US11642345B2, “Replication stress pathway agent compositions and methods for treating cancer” (Boundless Bio, Inc., priority 2020, dated 2023)
